# Measurements from ChEMBL document CHEMBL1201862, “PubChem BioAssay data set” (2004).
# Activity calls are given as the source filed them.
# How the values were obtained:
# Genome polyprotein = Genome polyprotein (Hepatitis C virus, UniProt Q2Q167); assay: disruption of hepatitis C core self-association – biochemical, TR-FRET, dose response (AID 2159); parameters: species or system Hepacivirus hominis;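 further: blocks dimerization of HCV core protein measured by TR-FRET between tagged core106 pairs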
# Sequence of Genome polyprotein (Q2Q167 whole entry): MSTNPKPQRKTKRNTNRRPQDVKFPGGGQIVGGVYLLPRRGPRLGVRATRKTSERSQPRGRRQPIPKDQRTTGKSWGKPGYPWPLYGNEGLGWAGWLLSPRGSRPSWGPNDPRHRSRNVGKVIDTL
# [1] = glucagon-like peptide-1 release potency in STC-1, concentration-response, half-maximal inhibitory concentration in the STC-1 line (AID 1117345); assay type: functional, cell-based
# [2] = Potency on glucagon-like peptide 1 release, dose-response in NCI-H716 cell line, half maximal inhibitory concentration (AID 1117344); assay type: functional, cell-based
# [3] = Trypanosoma cruzi replication inhibitors in host cells – cell-based, plate reader, dry powder samples, dose response (AID 651845); assay type: functional
# [4] = anti-trypanosomal activity in BESM host cells – imaging, CA-I/72 strain, bovine embryo skeletal muscle, dry powder, dose response (AID 651885); assay type: functional, cell-based
# [5] = target: RNA-editing ligase 1, mitochondrial (Trypanosoma brucei brucei, UniProt P86926); assay: inhibition of trypanosome RNA editing ligase – biochemical, fluorescence, Trypanosoma brucei, dose response (AID 1117295); assay type: functional
# Sequence of RNA-editing ligase 1, mitochondrial (P86926 whole entry): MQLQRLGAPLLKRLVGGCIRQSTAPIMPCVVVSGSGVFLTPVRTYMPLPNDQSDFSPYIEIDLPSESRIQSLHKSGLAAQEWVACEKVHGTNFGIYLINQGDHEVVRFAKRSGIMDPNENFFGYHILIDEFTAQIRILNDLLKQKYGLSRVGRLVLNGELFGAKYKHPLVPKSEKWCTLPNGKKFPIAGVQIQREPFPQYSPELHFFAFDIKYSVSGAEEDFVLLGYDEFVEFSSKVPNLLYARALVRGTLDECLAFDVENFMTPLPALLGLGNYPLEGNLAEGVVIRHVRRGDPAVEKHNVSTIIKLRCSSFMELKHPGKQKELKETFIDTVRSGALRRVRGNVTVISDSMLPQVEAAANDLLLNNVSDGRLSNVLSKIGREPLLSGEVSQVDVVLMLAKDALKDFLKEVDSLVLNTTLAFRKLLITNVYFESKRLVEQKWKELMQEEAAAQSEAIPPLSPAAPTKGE
# Paired box protein Pax-8 = Paired box protein Pax-8 (Homo sapiens, UniProt Q06710); assay: PAX8 transcriptional activity inhibition in RMG-I – RMG-I cells, luciferase, cherry-pick, dose response (AID 687027); assay type: functional, cell-based;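 further: luciferase reporter driven by Pax8 target thyroperoxidase promoter measured by SteadyGlo luminescence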
# Sequence of Paired box protein Pax-8 (Q06710 whole entry): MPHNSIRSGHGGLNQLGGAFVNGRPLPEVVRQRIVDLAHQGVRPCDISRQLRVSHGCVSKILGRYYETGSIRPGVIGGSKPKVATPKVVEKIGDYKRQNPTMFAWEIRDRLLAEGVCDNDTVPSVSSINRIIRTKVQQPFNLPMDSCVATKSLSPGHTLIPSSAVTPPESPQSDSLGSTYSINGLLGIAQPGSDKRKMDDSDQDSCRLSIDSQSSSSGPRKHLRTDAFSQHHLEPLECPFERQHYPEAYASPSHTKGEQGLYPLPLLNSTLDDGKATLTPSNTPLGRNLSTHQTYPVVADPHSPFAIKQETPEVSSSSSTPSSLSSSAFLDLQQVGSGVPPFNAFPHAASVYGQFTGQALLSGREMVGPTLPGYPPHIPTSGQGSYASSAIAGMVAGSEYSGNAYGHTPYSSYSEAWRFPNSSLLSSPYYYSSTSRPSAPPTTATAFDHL
# [6] = inhibitors acting on PAX2 in cells – cell-based, plate reader, dry powder samples, selectivity assay for PAX8 inhibitor project, dose response (AID 743048); assay type: functional;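 further: HEK293 cells carrying a WT1 promoter luciferase reporter driven by expressed Pax2; potency is for inhibition of Pax2 driven reporter signal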
# [7] = COV362 cell viability loss – plate reader, dry powder, SA12, cytotoxicity control for PAX8 inhibitor project, dose response (AID 743144); assay type: functional, cell-based
# [8] = OVCAR-3 cell viability loss – plate reader, dry powder samples, PAX8 inhibitor project, dose response (AID 743044); assay type: functional, cell-based
# [9] = PAX5 cellular inhibition readout – cell-based, plate reader, dry powder samples, selectivity assay for PAX8 inhibitor project, dose response (AID 743047); assay type: functional;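 further: HEK293 cells carrying a Pax5 driven CD19 promoter luciferase reporter; potency of inhibitors that lower reporter luminescence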
# [10] = COV434 cell viability loss – plate reader, dry powder, SA7, cytotoxicity control for PAX8 inhibitor project, dose response (AID 743145); assay type: functional, cell-based
# [11] = OV-90 cell viability loss – plate reader, dry powder, SA8, PAX8 inhibitor project, dose response (AID 743149); assay type: functional, cell-based
# [12] = PAX8-dependent cell viability loss – plate reader, dry powder, dose response (AID 743049); assay type: functional, cell-based
# [13] = viability of PTEN-deleted HCT116 cells – cell-based, HCT116 PTEN knockout, dose response (AID 1047); assay type: functional;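 further: HCT116 colon tumor cells with PTEN knocked out; cells exposed to compound for 60 hours before readout; potency for loss of cell viability measured by luminescence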
# [14] = viability of HCT116 lacking mutant beta-catenin – cell-based, human colon tumor, dose response (AID 1045); assay type: functional;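 further: HCT116 colon tumor cells with beta catenin knocked out; cells exposed to compound for 60 hours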
# [15] = target: T1, Mannose-6-phosphate isomerase (Homo sapiens, UniProt P34949); assay: MPI inhibition at elevated mannose 6-phosphate – biochemical, fluorescence intensity, high mannose 6-phosphate, primary screen (AID 1220)
# T1 sequence (P34949 whole entry): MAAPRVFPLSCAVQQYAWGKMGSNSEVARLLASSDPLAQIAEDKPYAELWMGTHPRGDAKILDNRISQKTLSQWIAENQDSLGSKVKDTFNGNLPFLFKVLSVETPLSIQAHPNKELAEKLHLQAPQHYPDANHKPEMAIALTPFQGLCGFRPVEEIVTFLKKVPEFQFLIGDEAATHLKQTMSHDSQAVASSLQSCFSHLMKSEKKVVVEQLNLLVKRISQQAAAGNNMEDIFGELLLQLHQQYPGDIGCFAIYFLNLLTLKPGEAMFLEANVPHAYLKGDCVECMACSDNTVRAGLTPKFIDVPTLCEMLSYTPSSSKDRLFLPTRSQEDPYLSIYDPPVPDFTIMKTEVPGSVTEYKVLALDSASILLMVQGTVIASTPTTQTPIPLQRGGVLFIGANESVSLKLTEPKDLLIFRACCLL
# Coagulation factor XII = target: T2, Coagulation factor XII (Homo sapiens, UniProt P00748); assay type: functional;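 further: activated factor XIIa alpha cleaving a fluorogenic AMC peptide substrate; inhibitor potency from loss of enzyme activity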
# T2 sequence (P00748 whole entry): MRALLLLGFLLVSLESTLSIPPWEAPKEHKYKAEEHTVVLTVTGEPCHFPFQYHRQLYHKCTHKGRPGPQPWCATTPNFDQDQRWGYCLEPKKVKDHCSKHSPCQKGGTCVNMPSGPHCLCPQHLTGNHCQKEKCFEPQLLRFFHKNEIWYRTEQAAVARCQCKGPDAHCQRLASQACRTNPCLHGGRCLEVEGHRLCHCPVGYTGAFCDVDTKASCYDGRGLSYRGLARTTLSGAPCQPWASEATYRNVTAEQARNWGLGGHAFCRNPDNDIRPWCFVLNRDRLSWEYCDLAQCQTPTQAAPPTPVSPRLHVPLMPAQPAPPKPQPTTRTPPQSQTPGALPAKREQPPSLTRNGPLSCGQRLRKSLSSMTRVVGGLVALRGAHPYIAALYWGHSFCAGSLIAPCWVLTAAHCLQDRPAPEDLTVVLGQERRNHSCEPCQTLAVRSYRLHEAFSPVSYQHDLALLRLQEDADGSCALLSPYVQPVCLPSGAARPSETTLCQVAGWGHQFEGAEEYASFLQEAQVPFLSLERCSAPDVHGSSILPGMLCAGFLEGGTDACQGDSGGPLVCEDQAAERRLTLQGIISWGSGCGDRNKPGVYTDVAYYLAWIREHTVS
# [16] = target: DNA damage-inducible transcript 3 protein (Mus musculus, UniProt P35639); assay type: functional, Cricetulus griseus
# Sequence of DNA damage-inducible transcript 3 protein (P35639 whole entry): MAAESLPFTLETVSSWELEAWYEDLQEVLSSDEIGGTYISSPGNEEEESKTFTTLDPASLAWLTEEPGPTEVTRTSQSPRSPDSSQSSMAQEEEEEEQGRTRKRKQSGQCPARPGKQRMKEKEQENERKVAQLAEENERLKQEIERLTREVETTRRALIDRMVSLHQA
# [17] = Trypanosoma cruzi growth suppression in host cells – NIH3T3 host cells, beta-gal luminescence, confirmation (AID 2044); assay type: functional, cell-based;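 further: intracellular parasites grown in NIH/3T3 mouse fibroblasts as host cells; luminescent beta-galactosidase reporter signal from transgenic T. cruzi replicating inside host cells; inhibitors lower the luminescence signal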
# [18] = Luminescence Cell-Based Secondary HTS screen to identify cytotoxic compounds of NIH3T3 cells. [Related pubchem assays: 1885, 1968 ]; assay type: functional
# [19] = NIH3T3 cell viability loss – ATP luminescence, mouse fibroblasts, counter-screen, dose response (AID 2010); assay type: functional, cell-based;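 further: cells exposed to compound for about 90 hours before reading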
# Cytochrome P450 2C19 = Cytochrome P450 2C19 (Homo sapiens, UniProt P33261); assay: qHTS Assay for Inhibitors and Substrates of Cytochrome P450 2C19. [Related pubchem assays: 410 ]; assay type: ADME; conditions: read-out: Potency
# Sequence of Cytochrome P450 2C19 (P33261 whole entry): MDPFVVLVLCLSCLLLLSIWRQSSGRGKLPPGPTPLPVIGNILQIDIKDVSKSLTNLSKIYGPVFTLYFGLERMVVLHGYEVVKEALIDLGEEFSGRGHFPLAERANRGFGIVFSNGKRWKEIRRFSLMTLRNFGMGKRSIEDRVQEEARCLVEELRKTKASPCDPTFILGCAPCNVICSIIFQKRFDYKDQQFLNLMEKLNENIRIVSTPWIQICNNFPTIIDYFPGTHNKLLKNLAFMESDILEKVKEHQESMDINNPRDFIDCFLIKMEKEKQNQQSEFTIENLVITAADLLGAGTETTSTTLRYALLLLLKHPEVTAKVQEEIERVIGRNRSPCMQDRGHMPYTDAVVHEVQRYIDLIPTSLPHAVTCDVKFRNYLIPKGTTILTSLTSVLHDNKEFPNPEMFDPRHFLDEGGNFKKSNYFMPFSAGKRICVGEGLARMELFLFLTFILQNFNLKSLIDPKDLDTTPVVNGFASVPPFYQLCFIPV
# Estrogen receptor beta = Estrogen receptor beta (Homo sapiens, UniProt Q92731);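 further: recombinant ER-beta bound to coactivator SRC1 peptide in presence of estradiol agonist; inhibitors block coactivator peptide binding and lower the FRET signal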
# Sequence of Estrogen receptor beta (Q92731 whole entry, the tested form may be a part): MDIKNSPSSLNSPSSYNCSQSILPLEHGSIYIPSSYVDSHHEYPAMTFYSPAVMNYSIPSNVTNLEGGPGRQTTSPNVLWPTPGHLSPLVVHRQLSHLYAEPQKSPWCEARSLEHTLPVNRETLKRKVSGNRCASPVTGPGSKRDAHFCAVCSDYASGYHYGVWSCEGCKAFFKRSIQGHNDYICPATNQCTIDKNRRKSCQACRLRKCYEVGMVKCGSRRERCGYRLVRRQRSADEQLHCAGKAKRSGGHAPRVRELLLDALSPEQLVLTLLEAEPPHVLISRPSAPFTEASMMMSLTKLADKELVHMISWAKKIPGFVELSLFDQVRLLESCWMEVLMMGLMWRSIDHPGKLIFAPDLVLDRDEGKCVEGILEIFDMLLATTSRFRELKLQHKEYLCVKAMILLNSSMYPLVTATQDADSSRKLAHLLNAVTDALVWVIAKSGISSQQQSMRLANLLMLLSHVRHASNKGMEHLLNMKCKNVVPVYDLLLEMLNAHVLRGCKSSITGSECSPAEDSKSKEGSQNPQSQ
# [20] = target: T3, RNA-binding protein pos-1 (Caenorhabditis elegans, UniProt G5EF15); assay: disruptors of C. elegans POS-1 RNA interaction – biochemical, fluorescence polarization, dose response (AID 1964);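 further: purified POS-1 fused to maltose binding protein made in E. coli; potency of compounds blocking POS-1 binding to fluorescent RNA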
# T3 sequence (G5EF15 whole entry): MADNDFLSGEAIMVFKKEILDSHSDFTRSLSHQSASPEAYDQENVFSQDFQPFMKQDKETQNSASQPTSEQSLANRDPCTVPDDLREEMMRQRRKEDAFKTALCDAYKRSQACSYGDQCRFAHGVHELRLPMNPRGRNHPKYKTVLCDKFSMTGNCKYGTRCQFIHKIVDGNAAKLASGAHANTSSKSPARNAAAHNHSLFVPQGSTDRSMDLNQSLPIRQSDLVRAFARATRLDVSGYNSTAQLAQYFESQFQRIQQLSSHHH
# [21] = Luminescence Cell-Based Dose Response HTS to Identify Inhibitors of 5'UTR Stem-Loop Driven Prion Protein mRNA Translation in H4 Neuroglioblastoma Cells. [Related pubchem assays: 1827 (Project Summary), 1813 (Primary HTS)]; assay type: functional
# [22] = target: T4, Zinc finger protein mex-5 (Caenorhabditis elegans, UniProt Q9XUB2); assay: potency of MEX-5 RNA-binding blockers – biochemical, C. elegans, fluorescence polarization, dose response (AID 1960)
# T4 sequence (Q9XUB2 whole entry): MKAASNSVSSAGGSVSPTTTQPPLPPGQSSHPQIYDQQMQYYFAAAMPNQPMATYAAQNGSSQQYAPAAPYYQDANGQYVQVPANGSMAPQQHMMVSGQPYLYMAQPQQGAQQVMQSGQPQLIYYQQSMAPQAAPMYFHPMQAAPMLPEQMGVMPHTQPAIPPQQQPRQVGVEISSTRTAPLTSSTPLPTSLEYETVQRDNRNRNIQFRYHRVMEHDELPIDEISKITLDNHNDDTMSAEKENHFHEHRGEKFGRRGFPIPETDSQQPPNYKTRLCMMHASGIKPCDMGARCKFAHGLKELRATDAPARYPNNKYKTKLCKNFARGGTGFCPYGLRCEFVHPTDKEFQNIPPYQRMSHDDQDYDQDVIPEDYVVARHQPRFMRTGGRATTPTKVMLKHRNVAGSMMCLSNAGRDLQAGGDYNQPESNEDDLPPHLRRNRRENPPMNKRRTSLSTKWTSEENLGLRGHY
# [23] = alpha-synuclein stem-loop luciferase translation blockers – H4 neuroglioma cells, luminescence, confirmation (AID 1988); assay type: functional, cell-based
# [24] = Luminescence-based cell-based high throughput dose response assay to identify activators of the DAF-12 from the parasite S. stercoralis (ssDAF-12).; assay type: functional
# [25] = target: T5, Oxysterols receptor LXR-beta (Homo sapiens, UniProt P55055); assay type: functional, cell-based;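 further: Cell-based luminescence dose-response assay of agonist activity at LXR, run as a confirmatory counterscreen to a daf-12 agonist screen; HEK293 cells with Gal4-LXR fusion and GAL4-driven luciferase reporter; agonist potency from rising luciferase signal of a Gal4-LXR reporter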
# T5 sequence (P55055 whole entry): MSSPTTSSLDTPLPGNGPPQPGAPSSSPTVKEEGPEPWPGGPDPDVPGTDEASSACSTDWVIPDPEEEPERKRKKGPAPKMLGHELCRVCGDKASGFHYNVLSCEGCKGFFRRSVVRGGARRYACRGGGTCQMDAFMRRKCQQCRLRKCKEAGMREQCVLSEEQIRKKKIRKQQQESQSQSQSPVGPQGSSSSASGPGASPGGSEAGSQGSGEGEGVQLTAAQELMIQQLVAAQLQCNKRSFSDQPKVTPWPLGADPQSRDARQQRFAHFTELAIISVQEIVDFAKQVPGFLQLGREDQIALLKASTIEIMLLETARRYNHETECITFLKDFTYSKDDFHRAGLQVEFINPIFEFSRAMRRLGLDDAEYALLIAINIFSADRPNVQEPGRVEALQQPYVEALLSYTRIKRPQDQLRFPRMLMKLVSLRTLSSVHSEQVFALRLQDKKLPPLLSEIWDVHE
# [26] = Dd2 parasite growth inhibition in erythrocytes – SYBR Green, dry powder samples, set 9, dose response (AID 1159568); assay type: functional, cell-based
# [27] = target: T6, Probable nicotinate-nucleotide adenylyltransferase (Staphylococcus aureus (strain N315), UniProt P65502); assay type: functional, Staphylococcus aureus subsp. aureus N315;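 on IC50 Mean: confirmatory dose-response retesting of NadD inhibitor hits first found in an ultra-high-throughput screen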
# T6 sequence (P65502 whole entry): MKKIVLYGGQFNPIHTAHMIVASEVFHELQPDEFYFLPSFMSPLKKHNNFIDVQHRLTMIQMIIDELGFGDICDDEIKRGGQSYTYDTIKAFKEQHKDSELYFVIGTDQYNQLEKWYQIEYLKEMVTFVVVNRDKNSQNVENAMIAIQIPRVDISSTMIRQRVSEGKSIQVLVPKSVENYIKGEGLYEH
# [28] = target: T6, Probable nicotinate-nucleotide adenylyltransferase; assay type: functional, Staphylococcus aureus subsp. aureus N315; conditions: read-out: IC50_Mean
smiles,measurement,setting,value
O=[N+]([O-])c1ccc(Cl)c2c1C1C=CCC1C(c1ccccn1)N2 (stereo not given),IC50,Genome polyprotein,> 49.8 µM (not active)
CCCOC(C(=O)OC1CCN(C)CC1)(c1ccccc1)c1ccccc1,IC50,[1],23.8 µM (inactive)
same,IC50,[2],> 40 µM (inactive)
C[C@@H]1CN([C@@H](C)CO)C(=O)c2cccc(NC(=O)c3ccncc3)c2O[C@H]1CN(C)Cc1ccccc1Cl,AC50,[3],0.158 µM (active)
same,IC50,[4],0.0114 µM (active)
CCC(C)NC(=O)C1CCN(S(=O)(=O)c2ccc3[nH]c(=O)oc3c2)CC1 (stereo not given),IC50,[5],19.7 µM (inactive)
CCCC#Cc1ccc([C@@H]2[C@H](C#N)N(S(=O)(=O)c3cccc(F)c3)[C@H]2CO)cc1,AC50,Paired box protein Pax-8,5.57 µM (active)
same,AC50,[6],15.6 µM (active)
same,AC50,[7],35.2 µM (active)
same,AC50,[8],31.9 µM (active)
same,AC50,[9],14.2 µM (active)
same,AC50,[10],63.8 µM (active)
same,AC50,[11],26.9 µM (active)
same,AC50,[12],17 µM (active)
COc1cc(Nc2c(C#N)cnc3cc(OCCCN4CCN(C)CC4)c(OC)cc23)c(Cl)cc1Cl,IC50,[1],> 40 µM (inactive)
same,IC50,[2],25.1 µM (inactive)
Cc1ccc(S(=O)(=O)Nc2ccc3c(c2)C(=O)N([C@@H](C)CO)C[C@H](C)[C@@H](CN(C)C(=O)Nc2cccc4ccccc24)OCCCC[C@@H](C)O3)cc1,AC50,Paired box protein Pax-8,4.15 µM (active)
same,AC50,[6],7.25 µM (active)
same,AC50,[7],37.3 µM (active)
same,AC50,[8],13.3 µM (active)
same,AC50,[9],8.21 µM (active)
same,AC50,[10],0.0021 µM (active)
same,AC50,[11],22.8 µM (active)
same,AC50,[12],18.2 µM (active)
COC(=O)C1=C(C)N(Cc2cccc(C(F)(F)F)c2)C(NCc2cccc(C(F)(F)F)c2)=NC1c1ccccc1C(F)(F)F (stereo not given),IC50,[5],> 96.6 µM (inactive)
COc1cc(C(=O)O/N=C2\C=CC(=O)C(C)=C2)cc(OC)c1OC,EC50,[13],5.17 µM (active)
same,EC50,[14],3.63 µM (active)
same,IC50,[15],> 50 µM (not active)
same,IC50,Coagulation factor XII,0.623 µM (active)
same,Absolute IC50 (CHOP),[16],10 µM
COCc1cc(CN2CCCC(CNC(=O)c3ccc(F)cc3)C2)ccc1OC (stereo not given),EC50,[17],0.118 µM (active)
same,EC50,[18],> 195 µM (not active)
same,EC50,[19],> 60 µM (not active)
COc1ccc(OC2C=CC(C#Cc3ccc(Br)cc3)OC2CO)c(C(C)(C)C)c1 (stereo not given),AC50,Cytochrome P450 2C19,3.16 µM (inconclusive)
CCC(=O)Nc1ccc(C(=O)Cn2nc(C(=O)O)c3ccccc3c2=O)cc1,IC50,Estrogen receptor beta,5.09 µM (active)
O=C(CCc1ccc(O)cc1)c1c(O)cc(O)cc1O[C@@H]1O[C@@H](CO)[C@@H](O)[C@@H](O)[C@H]1O,AC50,Cytochrome P450 2C19,6.31 µM (inconclusive)
O=C1c2ccccc2C(=O)C1c1ccc2ccccc2n1,EC50,[20],> 300 µM (not active)
same,EC50,[21],7.02 µM (active)
same,EC50,[22],> 300 µM (not active)
same,EC50,[23],3.11 µM (active)
same,IC50,[24],> 67.5 µM (inactive)
same,EC50,[25],> 67.5 µM (inactive)
same,EC50,cells,> 67.5 µM (inactive)
C[C@H]1CN([C@@H](C)CO)C(=O)c2cccc(NC(=O)c3ccc(-c4nccs4)cc3)c2O[C@@H]1CN(C)C(=O)Nc1ccc(C(F)(F)F)cc1,AC50,[26],9.87 µM (active)
CCCNC(=O)N1[C@H](C#N)[C@H](c2ccccc2-c2ccc(OC)cc2)[C@@H]1CO,AC50,[26],3.54 µM (active)
Cc1ccc(C2CC(c3cccs3)=NN2C(=O)CSc2nc(=O)n3ccc(C)cc3n2)cc1 (stereo not given),IC50,Genome polyprotein,> 49.8 µM (not active)
same,EC50,[17],2.54 µM (active)
same,EC50,[19],> 60 µM (not active)
same,IC50,[27],5.52 µM (active)
same,IC50,[28],25.4 µM (active)
